Reference: the Kinase Knowledgebase extract (Sharma et al. 2016)

What follows are compounds tested against EGFR (human) (UniProt P00533).
Sequence of EGFR (human) (P00533 whole entry, looked up): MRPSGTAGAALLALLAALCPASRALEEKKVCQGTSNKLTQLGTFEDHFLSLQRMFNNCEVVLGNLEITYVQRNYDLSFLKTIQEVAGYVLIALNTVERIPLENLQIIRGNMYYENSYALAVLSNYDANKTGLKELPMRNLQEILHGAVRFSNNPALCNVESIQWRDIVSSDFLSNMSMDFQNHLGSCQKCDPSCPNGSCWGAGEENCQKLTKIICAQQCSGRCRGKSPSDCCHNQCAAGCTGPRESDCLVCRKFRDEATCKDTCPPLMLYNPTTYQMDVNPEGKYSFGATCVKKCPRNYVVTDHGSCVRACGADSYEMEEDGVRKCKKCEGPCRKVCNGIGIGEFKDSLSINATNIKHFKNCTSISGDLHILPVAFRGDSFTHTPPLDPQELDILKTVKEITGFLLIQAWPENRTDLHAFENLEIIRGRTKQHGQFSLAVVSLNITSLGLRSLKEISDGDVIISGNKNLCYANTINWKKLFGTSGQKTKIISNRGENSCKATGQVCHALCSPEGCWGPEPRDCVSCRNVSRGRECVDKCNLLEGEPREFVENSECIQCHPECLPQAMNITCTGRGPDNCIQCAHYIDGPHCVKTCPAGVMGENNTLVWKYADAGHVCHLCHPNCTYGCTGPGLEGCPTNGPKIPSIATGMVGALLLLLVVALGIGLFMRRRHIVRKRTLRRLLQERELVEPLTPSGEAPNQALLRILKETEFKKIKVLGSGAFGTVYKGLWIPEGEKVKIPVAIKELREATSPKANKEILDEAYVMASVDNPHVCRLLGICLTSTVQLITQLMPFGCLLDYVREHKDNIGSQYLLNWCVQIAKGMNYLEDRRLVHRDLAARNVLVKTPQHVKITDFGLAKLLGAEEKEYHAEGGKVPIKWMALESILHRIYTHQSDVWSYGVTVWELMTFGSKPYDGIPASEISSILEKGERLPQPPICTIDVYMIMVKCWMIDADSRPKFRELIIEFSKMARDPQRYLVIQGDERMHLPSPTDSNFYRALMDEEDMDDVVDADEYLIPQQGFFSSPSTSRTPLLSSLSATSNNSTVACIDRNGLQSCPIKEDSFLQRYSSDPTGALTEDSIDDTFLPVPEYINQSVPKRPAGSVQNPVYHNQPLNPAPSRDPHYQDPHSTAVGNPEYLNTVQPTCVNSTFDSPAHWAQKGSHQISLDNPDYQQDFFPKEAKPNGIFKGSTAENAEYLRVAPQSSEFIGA

IC50 [nM]	Compound
1800	COc1cc(/C=C(\C#N)C(=O)Nc2cccc(Cl)c2)cc([N+](=O)[O-])c1O
1300	Cc1cc(/C=C(\C#N)C(=O)Nc2cccc(Cl)c2)cc(O)c1O
1100	N#C/C(=C\c1cc(Br)c(O)c(Br)c1)C(=O)Nc1cccc(Cl)c1
680	COc1cc(/C=C(\C#N)C(=O)Nc2cccc(Cl)c2)cc(Cl)c1O
960	N#C/C(C(=O)Nc1ccccc1)=C(\O)c1ccc(O)c(O)c1
2300	N#C/C(=C\c1cc(O)c(O)c(C(F)(F)F)c1)C(=O)Nc1cccc(Cl)c1
280	N#C/C(=C\c1cc(O)c(O)c(Br)c1Br)C(=O)Nc1cccc(Cl)c1
490	N#C/C(=C\c1cc(O)c(O)c(Br)c1)C(=O)Nc1cccc(Cl)c1
2600	CCOc1cc(/C=C(\C#N)C(N)=O)cc(CSc2ccccc2)c1O
1400	COc1cc(/C=C(\C#N)C(=O)Nc2cccc(Cl)c2)cc(S(C)(=O)=O)c1O
420	COc1cc(/C=C(\C#N)C(=O)Nc2cccc(Cl)c2)cc(C)c1O
900	Cc1cc(/C=C(\C#N)C(=O)Nc2cccc(Cl)c2)cc(C)c1O
680	N#C/C(=C\c1cc(O)c(O)c(Cl)c1)C(=O)Nc1cccc(Cl)c1
1000	N#C/C(=C\c1cc(O)c(O)c(C#N)c1)C(=O)Nc1cccc(Cl)c1
1400	COc1cc(/C=C(\C#N)C(=O)Nc2cccc(Cl)c2)cc(Br)c1O
1800	COc1cc(/C=C(\C#N)C(=O)Nc2ccccc2)cc(Br)c1O
280	N#C/C(=C\c1cc(O)c(O)cc1[N+](=O)[O-])C(=O)Nc1cccc(Cl)c1
2100	COc1cc(/C=C(\C#N)C(=O)Nc2cccc(Cl)c2)ccc1O

Compound	IC50 [nM]
N#C/C(=C\c1cc(O)c(O)c(F)c1)C(=O)Nc1cccc(Cl)c1	600
Cc1cccc(NC(=O)/C(C#N)=C/c2ccc(O)c(O)c2)c1	2100
COc1cc(/C=C(\C#N)C(=O)Nc2ccccc2)cc(Cl)c1O	1600
N#C/C(=C\c1cc(O)c(O)c(Cl)c1)C(=O)Nc1ccccc1	1200
COc1cc(/C=C(\C#N)C(=O)Nc2cccc(Cl)c2)cc(F)c1O	1600
N#C/C(=C\c1ccc(O)c(O)c1)C(=O)Nc1cccc(Cl)c1	1400
